# According to patent US20020150626A1, “Lipid-protein-sugar particles for delivery of nucleic acids” (priority 2000, published 2002):
# Where two headings read alike, the source gives them in different places.
# Key:
# [1] = adult rats; Kohane et al. 1998; cited from earlier work
# [2] = rat, in vivo
# Method: The presence of functional deficits in the un-injected extremity was used as a measure of the degree of systemically distributed local anesthetic (i.e., toxicity). Thermal latency (the length of time that a rat would leave his paw on the hotplate) was measured in the un-injected leg at predetermined intervals, in rats who received 10% bupivacaine LPSPs or 50% bupivacaine microspheres (FIG. 4).
# [3] = Median lethal dose of bupivacaine (literature); assay type: in vivo; conditions: in a 350 g rat
structure (smiles),measurement,setting,value
"CCCCN1CCCCC1C(=O)Nc1c(C)cccc1C (stereo not drawn) [bupivacaine in solution, bupivacaine]",median lethal dose,[1],30 ± 5 mg/kg
same,signs of systemic toxicity (contralateral thermal latency),[2],one of those rats had severe signs of systemic toxicity
same,median lethal dose,[3],10.5 mg
